Results published in PMC8179208, “Unravelling the mechanisms controlling heme supply and demand” (Proceedings of the National Academy of Sciences of the …, 2021).

Biological target: T1, mAPXmEGFP (Glycine max, UniProt Q43758, K14D/E112K)
T1 construct: gene apx1; monomeric K14D/E112K APX fused to mEGFP reporter; N-terminal His tag, pLEICS-45; pea, Pisum sativum, possible
T1 sequence (Q43758 1-250 K14D/E112K): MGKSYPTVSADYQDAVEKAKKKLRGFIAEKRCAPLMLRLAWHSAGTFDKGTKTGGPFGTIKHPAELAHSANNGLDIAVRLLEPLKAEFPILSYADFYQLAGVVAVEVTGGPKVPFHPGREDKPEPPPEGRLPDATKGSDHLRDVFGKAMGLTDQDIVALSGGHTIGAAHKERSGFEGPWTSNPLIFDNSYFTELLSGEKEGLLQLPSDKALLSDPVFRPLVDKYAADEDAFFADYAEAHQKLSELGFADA
Test: time-correlated single-photon counting fluorescence lifetime titration of apo protein, […] binding model
Settings: 37 °C, 10 mM potassium phosphate pH 7, 1 uM protein

Structure (SMILES): C=CC1=C(C)C2=Cc3c(C=C)c(C)c4[n]3[Fe]([Cl])[n]3c(c(C)c(CCC(=O)O)c3=CC3=NC(=C4)C(C)=C3CCC(=O)O)=CC1=N2 [heme]
- Kd: 22 nM
